Holding throughout (type): cell-based, human
Assay [1] concerns MOLT-3 cells. Nature of the assay: MTT cytotoxicity assay, MOLT-3. To be noted: means ± SEM. An excerpt: (§1) U-937, HL-60, MOLT-3, NALM-6, and SK-MEL-1 cells were from DSMZ (German Collection of Microorganisms and Cell Cultures, Braunschweig, Germany). U-937/Bcl-2 cells were kindly provided by Dr. Jacqueline Bréard (INSERM U749, Faculté de Pharmacie Paris-Sud, Châtenay-Malabry, France). The U-937 is a pro-monocytic, human promyelocytic leukemia cell line that was isolated from a histiocytic lymphoma. HL-60 is a human acute myeloid leukemia cell line. MOLT-3 is a human acute lymphoblastic leukemia cell line. NALM-6 is a human B cell precursor leukemia. SK-MEL-1 is a human melanoma cell line growing singly or in clumps (occasional giant, polynucleated cell) in suspension. Cells were cultured in RPMI 1640 medium containing 10% (v/v) heat-inactivated fetal bovine serum, 100 μg/mL streptomycin, and 100 U/mL penicillin, incubated at 37 °C in a humidified atmosphere containing 5% CO2 as described. The doubling times of the cell lines were 24 h in HL-60, 30 h in U-937, U-937/Bcl-2, 40 h in MOLT-3 and NALM-6, and several days in SK-MEL-1 cells. Human peripheral blood mononuclear cells (PBMC) were isolated from heparin-anticoagulated blood of healthy volunteers by centrifugation with Ficoll-Paque Plus (GE Healthcare Bio-Sciences AB, Uppsala, Sweden). PBMC were also stimulated with phytohemagglutinin (2 µg/mL) for 48 h before the experimental treatment. The trypan blue exclusion method was used for counting the cells by a hemocytometer with 95% viability in all the experiments. Compounds were dissolved in dimethyl sulfoxide (DMSO) and kept under dark conditions at 25 °C. […] The cytotoxicity of the synthetic compounds was evaluated by colorimetric 3-(4,5-dimethyl-2-thiazolyl-)-2,5-diphenyl-2H-tetrazolium bromide (MTT) assay as previously described. Briefly, cells (5000 per well) were incubated with increasing concentrations of compounds for 72 h into a 96-well plate. Then, the supernatants were removed and 0.5 mg/mL MTT was added and incubated for 4 h at 37 °C. Sodium dodecyl sulfate (10% w/v) in 0.05 M HCl was added to solubilize the reaction products and the absorbance was measured at 570 nm with a reference wavelength of […] using an ELISA reader (Bio-Rad, Hercules, CA, USA). The IC50 values (concentrations inducing a 50% inhibition of cell viability) were determined graphically for each experiment by a nonlinear regression using the curve fitting routine implemented within the software Prism 5.0 (GraphPad, La Jolla, CA, USA).

The subject of assay [2] is NALM-6 cells. The assay is described as follows: MTT cytotoxicity assay, NALM-6. Particulars: 72 h, MTT, means ± SEM.
Text: as §1
In general terms: Formazan colour is commonly taken as a measure of viable cells.

Assay [3] relates to SK-MEL-1 cells. The assay is described as follows: MTT cytotoxicity assay, SK-MEL-1. To be noted: means ± SEM.
Text: as §1

In assay [4] the test system is U-937 cells. Nature of the assay: Annexin V-FITC/propidium iodide flow cytometry, U-937. To be noted: U-937, 10 µM, 24 h; for annexin V-FITC positive cells: control 3.5%. On the procedure:
Cells (2.5 × 10^5) were centrifuged for 10 min at 500× g, washed with cold PBS, fixed with ice-cold 75% ethanol and stored at −20 °C overnight. Samples were then centrifuged at 500× g for 10 min at 4 °C, washed with PBS, resuspended in 200 μL of PBS containing 100 μg/mL RNase and 50 μg/mL propidium iodide and incubated for 1 h in the dark. The DNA content was analyzed by flow cytometry with a BD FACSVerse^TM cytometer (BD Biosciences, San Jose, CA, USA). Apoptosis was also evaluated by flow cytometric analysis of double-staining annexin V-FITC and propidium iodide cells as previously described.
On the technique in general: Flow cytometry measures light scatter and fluorescence of single cells or particles in a stream.

The test system of assay [5] is caspases-3/7, -8, and -9 in U-937 cells. The assay is described as follows: Caspase activity in lysates of treated cells (colorimetric tetrapeptide substrates). To be noted: U-937, 10 µM, 24 h. On the procedure:
Caspase activity was determined by measuring proteolytic cleavage of specific chromogenic substrates as previously described. Briefly, cells were treated with the specified guanidines for 24 h, harvested by centrifugation (1000× g for 5 min at 4 °C), washed twice with PBS, resuspended in lysis buffer (50 mM HEPES, pH 7.4, 0.1 mM EDTA, 1 mM dithiothreitol, and 0.1% Chaps), spun (17,000× g for 10 min at 4 °C) and the supernatants were normalized by protein concentration and used to determine enzyme activity. The net increase in absorbance at 405 nm after incubation at 37 °C was indicative of caspase activity. The colorimetric substrates were DEVD-pNA (for caspase-3 like protease activity), IETD-pNA (for caspase-8 activity), and LEHD-pNA (for caspase-9 activity).

For assay [6], the system named is U-937 cells. The assay is described as follows: Western blot of PARP, caspases and cytosolic cytochrome c. To be noted: 24 h; for full-length PARP protein (immunoblot): U-937, 10 µM; for mitochondrial cytochrome c release (cytosolic fraction, immunoblot): U-937, increasing concentrations. As for the experimental part:
For whole cell lysates, cells were harvested by centrifugation (500× g, 10 min, 4 °C), washed twice with PBS, and pellets were resuspended in lysis buffer (1% Triton X-100, 10 mM sodium fluoride, 2 mM EDTA, 20 mM Tris-HCl (pH 7.4), 2 mM tetrasodium pyrophosphate, 10% glycerol, 137 mM NaCl, and 20 mM sodium β-glycerophosphate), with the protease inhibitors phenylmethylsulfonyl fluoride (PMSF, 1 mM), aprotinin, leupeptin, and pepstatin A (5 μg/mL each) and kept on ice for 15 min. Cells were sonicated on ice 5 times (5 s each, with intervals between each sonication of 5 s) with a Braun Labsonic 2000 microtip sonifier and centrifuged (11,000× g, 10 min, 4 °C). For subcellular fractionation, cells were washed twice with PBS and then resuspended in ice-cold buffer (20 mM HEPES (pH 7.5), 250 mM sucrose, 10 mM KCl, 1.5 mM MgCl2, 1 mM EDTA, 1 mM EGTA, and 1 mM dithiothreitol containing protease inhibitors (0.1 mM PMSF and 1 µg/mL leupeptin, aprotinin, and pepstatin A)). After 15 min on ice, cells were lysed by pushing them several times through a 29-gauge needle, and the lysate was centrifuged at 1000× g for 5 min at 4 °C. The resulting supernatant fraction was centrifuged at 15,000× g for 20 min at 4 °C, and the resulting supernatant was used as the cytosolic fraction. The Bradford method was used to determine protein concentration. The samples loaded in sodium dodecyl sulfate-polyacrylamide gel (from 7.5 to 15% depending on the molecular weight of interest) were prepared with the same protein amount and boiled for 5 min. The proteins were transferred to poly(vinylidene difluoride) membranes for 20 h at 20 V. The membranes were blocked with 10% nonfat milk in Tris-buffered saline (50 mM Tris-HCl (pH 7.4), 150 mM NaCl) containing 0.1% Tween-20 (TBST) for 1 h, followed by incubation with specific antibodies against caspase-3, PARP, caspase-9, β-actin, tubulin, and cytochrome c overnight at 4 °C. Membranes were washed three times with TBST and incubated for 1 h with the specific secondary antibody and the antigen-antibodies complexes were visualized by enhanced chemiluminescence using the manufacturer’s protocol.

Molecules are shown by their SMILES.

The compound `Cc1ccc(S(=O)(=O)NC(=Nc2ccc(/C=C/C(=O)c3c(O)cccc3OCc3ccccc3)cc2)N2CCN(C)CC2)cc1` [Compound 6f] had an IC50 in assay [1] (Homo sapiens, MOLT-3, 72 h) of 1.5 µM. Moreover, the IC50 in assay [2] (Homo sapiens, NALM-6, 72 h) came to 2.7 µM. This compound also registered an IC50 in assay [3] (Homo sapiens, SK-MEL-1, 72 h) of 4.5 ± 0.4 µM. Moreover, in assay [4], the “fold increase of annexin V-FITC positive cells over control” value was found to be 11 fold and the “annexin V-FITC positive cells” value is 38%. Moreover, in assay [5], the caspase-8 activation entry is “less activated”; the “increase of caspase-3/7 and caspase-9 activities compared with control” value is “approximately three-fold”. Further, in assay [6], the “full-length PARP protein (immunoblot)” value was “dramatically decreased” and the “mitochondrial cytochrome c release (cytosolic fraction, immunoblot)” value is recorded as “concentration-dependent release”.

For `O=C(/C=C/c1ccc(N=C(Nc2ccccc2)N2CCCCC2)cc1)c1c(O)cccc1OCc1ccccc1` [Compound 6i], the IC50 was 7.1 ± 1.3 µM in assay [1] (72 h); under 10 µM in assay [1] (Homo sapiens, MOLT-3, 72 h); 10.8 ± 0.5 µM in assay [2]; about 10 µM in assay [2] (Homo sapiens, NALM-6, 72 h); 13.8 ± 1.2 µM in assay [3] (72 h); about 10 µM in assay [3] (Homo sapiens, SK-MEL-1, 72 h). The “fold increase of annexin V-FITC positive cells over control” value in assay [4] came out at 10 fold. In addition, the “annexin V-FITC positive cells” value in assay [4] came to 36%. The caspase-8 activation result in assay [5] was “less activated”. For the same compound, the “increase of caspase-3/7 and caspase-9 activities compared with control” value in assay [5] is “two-fold”. Also, the “full-length PARP protein (immunoblot)” value in assay [6] is on record as “dramatically decreased”. In addition, in assay [6], the “mitochondrial cytochrome c release (cytosolic fraction, immunoblot)” value is “concentration-dependent release”.

What is called IC50 is the concentration that inhibits the measured activity by half. A lower IC50 goes with higher potency.
